In patent US20260034277A1, “SYSTEMS AND METHODS FOR PATHOGEN INACTIVATION OF BLOOD PRODUCTS” (Cerus Corporation, priority 2024, published 2026):

Tests used:
[1] = Stability of S-303 after reconstitution, HPLC percent total peak area; format: physicochemical
[2] = as above; format: physicochemical; remark: listed apart in the source
Text: Increasing the throughput of RBC processing over the current process may benefit from the preparation of multi-use “bulk” containers of S-303 and GSH stock solutions for transfer (e.g., sequential transfer) into multiple processing sets to treat multiple RBC units. However, the instability of S-303 after reconstitution in the current INTERCEPT Blood System technology would generally not be suitable for such a multi-dose container approach. Toward an objective of multi-dose “bulk” dosing, which would require much longer hold times post-reconstitution, studies were performed to evaluate the stability of S-303 under different conditions, such as when reconstituted at higher concentrations. As control, S-303 was reconstituted at a concentration of 6.1 mM. Additional study arms reconstituted S-303 at 9.4 mM, 14.4 mM and 28.8 mM (Table 10). S-303 levels were measured over 120 min after reconstitution by standard HPLC and calculated as total peak area (e.g., area under the peak, area under the curve) to determine percent stability (percent total area).
Subsequent studies were performed in a similar manner as the above to further evaluate S-303 stability at higher concentrations than tested initially, including reconstitution at 40 mM, 50 mM and 75 mM concentrations.

RBCs = assay: Hemolysis after addition to RBCs of S-303/GSH reconstituted in WFI or saline; format: cell-based
Description: A study was performed to evaluate water (WFI, water for injection) as an alternative to saline for reconstitution of S-303 and/or GSH, for potential advantages such as manufacturing, cost of goods and/or regulatory requirements. Initially, the combinations of S-303 and GSH both reconstituted in WFI, or alternatively GSH reconstituted in WFI and S-303 reconstituted in saline were compared to the standard method of reconstituting both GSH and S-303 in saline. Following addition to RBCs, the level of hemolysis was evaluated due to water potentially being a hypotonic environment for the RBC.
Based on the extended stability data above for reconstituting S-303 at higher concentrations, an opportunity is provided for using bulk S-303 containers and a dosing device as described above for reconstituting S-303 at higher concentrations followed by a dilution step with diluent as part of the transfer of S-303 to the RBC in the mixing container. With such a dilution step, water may be substituted as an alternative to saline in the reconstitution step for the bulk S-303, followed by dilution in saline prior to each transfer step into individual RBC processing sets. To evaluate the feasibility of water reconstitution followed by saline dilution, an additional study was performed. […]

O=C(CCNc1c2ccccc2nc2ccccc12)OCCN(CCCl)CCCl [S-303, β-alanine, N-(acridin-9-yl), 2-[bis(2-chloroethyl)amino]ethyl ester]
stability time, extrapolation of the data in a best fit curve ([1]; 100 mM concentration): approximately 170 min
stability time, extrapolation of the data in a best fit curve ([1]; 150 mM concentration): ~240 min
stability, glass vials vs hemocompatible blood bags of different sheeting materials ([2]; 75 mM): no differences in stability observed
Mean % stability ([2]; reconstituted at 6.1 mM (control), 1 min): 98%
Mean % stability ([2]; reconstituted at 6.1 mM (control), 10 min): 97%
Mean % stability ([2]; reconstituted at 6.1 mM (control), 20 min): 95%
Mean % stability ([2]; reconstituted at 6.1 mM (control), 30 min): 94%
Mean % stability ([2]; reconstituted at 6.1 mM (control), 45 min): 92%
Mean % stability ([2]; reconstituted at 6.1 mM (control), 60 min): 90%
Mean % stability ([2]; reconstituted at 6.1 mM (control), 90 min): 87%
Mean % stability ([2]; reconstituted at 6.1 mM (control), 120 min): 85%
Mean % stability ([2]; reconstituted at 9.4 mM, 1 min): 98%
Mean % stability ([2]; reconstituted at 9.4 mM, 10 min): 97%
Mean % stability ([2]; reconstituted at 9.4 mM, 20 min): 96%
Mean % stability ([2]; reconstituted at 9.4 mM, 30 min): 95%
Mean % stability ([2]; reconstituted at 9.4 mM, 45 min): 93%
Mean % stability ([2]; reconstituted at 9.4 mM, 60 min): 92%
Mean % stability ([2]; reconstituted at 9.4 mM, 90 min): 90%
Mean % stability ([2]; reconstituted at 9.4 mM, 120 min): 87%
Mean % stability ([2]; reconstituted at 14.4 mM, 1 min): 99%
Mean % stability ([2]; reconstituted at 14.4 mM, 10 min): 97%
Mean % stability ([2]; reconstituted at 14.4 mM, 20 min): 96%
Mean % stability ([2]; reconstituted at 14.4 mM, 30 min): 96%
Mean % stability ([2]; reconstituted at 14.4 mM, 45 min): 95%
Mean % stability ([2]; reconstituted at 14.4 mM, 60 min): 94%
Mean % stability ([2]; reconstituted at 14.4 mM, 90 min): 92%
Mean % stability ([2]; reconstituted at 14.4 mM, 120 min): 90%
Mean % stability ([2]; reconstituted at 28.8 mM, 1 min): 99%
Mean % stability ([2]; reconstituted at 28.8 mM, 10 min): 98%
Mean % stability ([2]; reconstituted at 28.8 mM, 20 min): 97%
Mean % stability ([2]; reconstituted at 28.8 mM, 30 min): 97%
Mean % stability ([2]; reconstituted at 28.8 mM, 45 min): 96%
Mean % stability ([2]; reconstituted at 28.8 mM, 60 min): 95%
Mean % stability ([2]; reconstituted at 28.8 mM, 90 min): 94%
Mean % stability ([2]; reconstituted at 28.8 mM, 120 min): 92%
percent stable ([2]; reconstituted at 28.8 mM, up to 60 minutes): > 95%
stability ([2]; reconstituted at 75 mM, through 150 min): at least 95%
hemolysis (RBCs; S-303 reconstituted at 28.8 mM or 50 mM in WFI, diluted to 6 mM in saline prior to addition to RBCs, GSH in WFI (FIG. 7)): eliminated the issue of hydrolysis previously observed
level of hemolysis (RBCs; S-303 reconstituted in WFI, after addition to RBCs, compared with saline reconstitution (FIG. 6)): notable levels of hemolysis
